From patent US11485987B2, “Methods for inducing bioorthogonal reactivity” (University of Delaware, priority 2015, dated 2022) come the findings set out here.

Residue numbers refer to the chain shown, from its start. Where only a bound is given, the exact number is not on record here.

Series [1] can be described thus: Tetrazine hydrolytic stability in PBS. It counts as physicochemical. The following applies: 800 μM, PBS buffer, 25° C. The source says:
A challenge to the development of catalytic methods for turning on the tetrazine ligation was the identification of a DHTz/Tz pair that would be stable in both oxidation states (FIG. 1, panel B). For most redox couples, either the DHTz is too readily oxidized in air (e.g., 1), or the Tz is too reactive toward water and other nucleophiles (e.g., 2). The inventors show here that the dipyridyl DHTz/Tz pair (3/4) has good stability in both states (FIG. 1, panel C). Dihydrotetrazines 3 are highly resistant toward background oxidation in organic solvents, and a number of derivatives have been synthesized and shown stable even to silica gel chromatography. […] Aqueous solutions of 3a were handled in glassware that had been first rinsed with 2.0 mM EDTA in PBS to remove adventitious metal impurities. After standing in the dark at 25° C. in PBS buffer, a solution of 3a was monitored by UV-vis and shown to retain 99 and 96% of the DHTz oxidation state over 30 min and 2.5 hours respectively. […] In PBS containing 10% mouse serum, 90% of 3a was retained in the DHTz oxidation state after 1 h. […]
Solutions (1 mL) containing 4a (800 μM) in PBS buffer were prepared in cuvettes from stock solutions. Tetrazine concentration was measured by recording the absorbance at 525 nm every 20 minutes while holding the cuvette at either 25 for 24 hours.

A short description of series [2]: NIR photocatalytic oxidation/Diels-Alder/payload release (methylene blue, 660 nm LED). As to conditions: 28 μM in MeOH, methylene blue 7 μM, LED 660 nm 9.1 mW/cm^2. As to the method:
Encouraged by calculation, the inventors synthesized the compound 7, where p-nitrophenol serves as a model payload that can be readily monitored by UV and NMR (FIG. 7, panel A). To study the Diels-Alder/elimination sequence […], the inventors chose to oxidize 7 with Dess-Martin periodinane—a reagent that instantaneously oxidizes dihydrotetrazines to tetrazines. […] Upon LED irradiation (660 nm, 9.1 mW/cm^2) of 7 (28 μM) in MeOH in the presence of catalytic methylene blue (7 μM), complete oxidation/Diels-Alder/payload release within 15 minutes was observed (FIG. 7, panel B). In this photocatalytic reaction, aliquots by ESI-MS were analyzed, and intermediates 8 and 9 were not detected.
[…]. […] The reaction of 12 to produce 13 and 14 could also be promoted by irradiating a solution of 12 in 60% H2O/MeOH for 30 min with a 660 nm LED light source in the presence of catalytic amounts of methylene blue with monitoring by UV-Vis. The complete conversion to product 13 could be observed by UV-vis within 30 minutes.

Another series deals with T1, F41A APEX2 (Glycine max, UniProt Q43758, A134P/E112K/K14D/W41A).
T1 sequence (Q43758 1-250 A134P/E112K/K14D/W41A): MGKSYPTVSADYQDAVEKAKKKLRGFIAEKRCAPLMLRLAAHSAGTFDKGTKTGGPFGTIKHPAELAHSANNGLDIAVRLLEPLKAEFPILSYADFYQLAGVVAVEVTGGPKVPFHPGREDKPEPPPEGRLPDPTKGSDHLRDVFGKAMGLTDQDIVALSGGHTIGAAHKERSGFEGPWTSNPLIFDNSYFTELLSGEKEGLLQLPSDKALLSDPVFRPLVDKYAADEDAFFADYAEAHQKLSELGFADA
The series is described as follows: Oxidation of DHT by F41A APEX2, UV-Vis initial rates and kinetic parameters. Format: biochemical. The following applies: for Initial rate of oxidation of DHT by F41A APEX2 + SOD: SOD 1 μM, PBS, 100 μM EDTA, first 100 s. As to the method:
(§1) UV-Vis and fluorescence measurements were conducted in quartz cuvettes. All reactions were conducted in phosphate buffered saline (PBS) containing 100 μM EDTA with a pH=7.4. The PBS was prepared by adding 25 mM phosphate salts (Na2HPO4 and NaH2PO4), 100 mM NaCl, 100 μM EDTA to DI water. EDTA was added to quench free metals that can oxidize DHT. The buffer was pH adjusted to 7.4 using 1 mM HCl and 1 mM NaOH. UV experiments were stirred at 25° C. in a temperature-controlled cuvette holder of the spectrophotometer. Solutions of 15 or 16 were prepared from methanol stock solutions.
(§2) SOD (1 μM) was added to PBS containing 100 μM EDTA. 15 or 16 (60 μM) was added from methanol stock solutions. After 10s, APEX2 (SEQ ID NO:1) or F41A APEX2 (275 nM) was dosed in and oxidation was monitored at 325 nm for 15 and 285 nm for 16 at 60s intervals.
(§3) The initial rate of oxidation was calculated from the first 100 seconds after APEX2 (SEQ ID NO:1) or F41A APEX2 was added ([…]). In the assays where SOD was added, SOD (1 μM) was added to PBS containing 100 μM EDTA and 15 or 16 was dosed in. 10 seconds later, APEX2 (SEQ ID NO:1) or F41A APEX2 ([…]) was added and the rate of oxidation was calculated from the first 100 seconds after APEX2 (SEQ ID NO:1) or F41A APEX2 ([…]) addition. The initial rate of oxidation was adjusted to background oxidation of DHT in PBS with 100 μM EDTA. Kinetic parameters (Table 2) were determined using GraphPad's Prism 6 software from the data presented below (Table 3-4).

The target in another series is T2, APEX2 (SEQ ID NO:1) (Glycine max, UniProt Q43758, A134P/E112K/K14D/W41F).
T2 sequence (Q43758 1-250 A134P/E112K/K14D/W41F): T1 sequence (Q43758 1-250 A134P/E112K/K14D/W41A) with A41F
Nature of the series: Oxidation of DHT by APEX2, UV-Vis initial rates and kinetic parameters. It counts as biochemical. The following applies: PBS, 100 μM EDTA, first 100 s; for Initial rate of oxidation of DHT by APEX2 (SEQ ID NO: 1) + SOD: SOD 1 μM. As to the method: as §1
15 or 16 (60 μM) from methanol stock solutions was added to PBS containing 100 μM EDTA. After 10s, APEX2 (SEQ ID NO:1) (275 nM) was dosed in and oxidation was monitored at 325 nm for 15 and 285 nm for 16 at 60s intervals (FIG. 10B-C).
16 (15 μM) DHT from methanol stock solutions was added to PBS containing 100 μM EDTA. After 10s, APEX2 (SEQ ID NO:1) (275 nM) or HRP (15 nM) was dosed in and oxidation was monitored at 285 nm at 10s intervals (FIG. 10D)
as §2, §3

Regarding `O=C(O)CCC(=O)Nc1ccc(-c2nnc(-c3ccccn3)nn2)nc1` [4a, 4-oxo-4-((6-(6-(pyridin-2-yl)-1,2,4,5-tetrazin-3-yl)pyridin-3-yl)amino)butanoic Acid], the tetrazine fidelity was found to be 98% in series [1] (2 h) and 83% in series [1] (24 h).

For the molecule `CCCCN(C(=O)/C=C/Oc1ccc([N+](=O)[O-])cc1)c1cccnc1C1=NNC(c2ccccn2)=NN1` [compound 7, (E)-N-butyl-3-(4-nitrophenoxy)-N-(2-(6-(pyridin-2-yl)-1,4-dihydro-1,2,4,5-tetrazin-3-yl)pyridin-3-yl)acrylamide], the “time to complete oxidation/Diels-Alder/payload release” value in series [2] is at most 15 min.

Regarding `CCCCNC(=O)C1=NNC(c2ccccn2)=NN1` [compound 16], the “Initial rate of oxidation of DHT by F41A APEX2 + SOD” value at F41A APEX2 (DHT 5 μM) is given as 0.334 +/− 0.010 ×10^−8 M/s; on F41A APEX2 (DHT 10 μM), 0.642 +/− 0.035 ×10^−8 M/s; on F41A APEX2 (DHT 15 μM) it was 1.124 +/− 0.034 ×10^−8 M/s; on F41A APEX2 (DHT 20 μM), 2.132 +/− 0.035 ×10^−8 M/s; at F41A APEX2 (DHT 25 μM), 2.568 +/− 0.131 ×10^−8 M/s; on F41A APEX2 (DHT 30 μM), 2.129 +/− 0.076 ×10^−8 M/s. Moreover, the “Initial rate of oxidation of DHT by F41A APEX2 + SOD” value on F41A APEX2 (DHT 35 μM) was 3.078 +/− 0.025 ×10^−8 M/s; on F41A APEX2 (DHT 40 μM), 2.964 +/− 0.011 ×10^−8 M/s; at F41A APEX2 (DHT 50 μM) it was 3.867 +/− 0.049 ×10^−8 M/s; at F41A APEX2 (DHT 55 μM) it was 3.709 +/− 0.336 ×10^−8 M/s; at F41A APEX2 (DHT 75 μM), 4.549 +/− 0.150 ×10^−8 M/s; at F41A APEX2 (DHT 85 μM), 5.098 +/− 0.571 ×10^−8 M/s. For the same molecule, the “factor of increase of rate of catalysis versus APEX2 (SEQ ID NO:1)” value at F41A APEX2 (F41A APEX2 mutant with SOD) came out at 5. Besides, the “Initial rate of oxidation of DHT by APEX2 (SEQ ID NO: 1) + SOD” value on APEX2 (SEQ ID NO:1) (DHT 4 μM) is on record as 0.429 +/− 0.022 ×10^−8 M/s; at APEX2 (SEQ ID NO:1) (DHT 10 μM), 1.011 +/− 0.170 ×10^−8 M/s; on APEX2 (SEQ ID NO:1) (DHT 15 μM), 1.662 +/− 0.004 ×10^−8 M/s; on APEX2 (SEQ ID NO:1) (DHT 30 μM) it was 2.073 +/− 0.046 ×10^−8 M/s; at APEX2 (SEQ ID NO:1) (DHT 40 μM) it was 2.379 +/− 0.350 ×10^−8 M/s; on APEX2 (SEQ ID NO:1) (DHT 45 μM), 2.234 +/− 0.088 ×10^−8 M/s. Besides, the “Initial rate of oxidation of DHT by APEX2 (SEQ ID NO: 1) + SOD” value on APEX2 (SEQ ID NO:1) (DHT 50 μM) is given as 2.149 +/− 0.009 ×10^−8 M/s; at APEX2 (SEQ ID NO:1) (DHT 55 μM), 2.503 +/− 0.210 ×10^−8 M/s; at APEX2 (SEQ ID NO:1) (DHT 60 μM), 2.376 +/− 0.450 ×10^−8 M/s; on APEX2 (SEQ ID NO:1) (DHT 70 μM), 2.746 +/− 0.180 ×10^−8 M/s; at APEX2 (SEQ ID NO:1) (DHT 90 μM) it was 2.491 +/− 0.032 ×10^−8 M/s. Besides, the “Initial rate of oxidation of DHT by APEX2 (SEQ ID NO: 1)” value on APEX2 (SEQ ID NO:1) (DHT 5 μM) is given as 0.319 +/− 0.056 ×10^−8 M/s; at APEX2 (SEQ ID NO:1) (DHT 10 μM), 0.673 +/− 0.002 ×10^−8 M/s; on APEX2 (SEQ ID NO:1) (DHT 15 μM) it was 0.810 +/− 0.081 ×10^−8 M/s; at APEX2 (SEQ ID NO:1) (DHT 20 μM), 1.169 +/− 0.095 ×10^−8 M/s; at APEX2 (SEQ ID NO:1) (DHT 30 μM), 1.131 +/− 0.182 ×10^−8 M/s; at APEX2 (SEQ ID NO:1) (DHT 40 μM), 1.427 +/− 0.265 ×10^−8 M/s. Further, the “Initial rate of oxidation of DHT by APEX2 (SEQ ID NO: 1)” value on APEX2 (SEQ ID NO:1) (DHT 45 μM) is listed as 1.376 +/− 0.071 ×10^−8 M/s; at APEX2 (SEQ ID NO:1) (DHT 50 μM) it was 1.438 +/− 0.017 ×10^−8 M/s; on APEX2 (SEQ ID NO:1) (DHT 60 μM), 1.396 +/− 0.123 ×10^−8 M/s; at APEX2 (SEQ ID NO:1) (DHT 75 μM) it was 1.766 +/− 0.080 ×10^−8 M/s; on APEX2 (SEQ ID NO:1) (DHT 85 μM) it was 1.695 +/− 0.114 ×10^−8 M/s.
